According to patent publication US11401278B2, “Macrocyclic indole derivatives” (The Broad Institute, Inc., priority 2017, dated 2022):
Where a name gives a salt, the structure may show the parent alone. Read-outs that look alike come from different tables or passages of the source.

Key:
[1] = from CCOC(=O)c1[nH]c2c(-c3c(CN(CCCN4CCOCC4)S(=O)(=O)CCCCl)nn(C)c3CC)cccc2c1CCCOc1cccc2ccccc12; amine bond; NaH; DMF; 25.0 mM; 60.0 °C; 6.0 h; 2 steps
SK-MEL-2 = experiment: Antiproliferation assay (Assay 7), SK-MEL-2; type: cell-based; settings: Homo sapiens, CellTiter-Glo, 72 hours, median, read-out: Antiproli SK-MEL-2 [M] median IC50
Experimental: (§1) Assessment of the Anti-Proliferative Effect of Compounds in Different Cell Lines
(§2) The impact of compounds on the proliferation of different cell lines was assessed using the CellTiter-Glo® Luminescent Cell Viability reagent from Promega (G7573).
(§3) In parallel, cells were plated in a reference (day 0) plate for time zero determination.
(§4) Rim wells were excluded. The cells were incubated for 72 hours in a humidified incubator at 37° C. The day 0 plate was measured by adding 30 μL/well of CTG solution (CellTiter-Glo® Luminescent Cell Viability reagent, Promega G7573) to time zero wells in the reference plate followed by a 10 minutes incubation and luminescence reading at 0.1 ms. using the PHERAstar FS microplate reader (BMG Labtech).
(§5) After 72 hours incubation, the treated plates were measured in the same way as the day 0 plate mentioned above.

SNU-16 = experiment: Antiproliferation assay (Assay 7), SNU-16; type: cell-based; settings: Homo sapiens, CellTiter-Glo, 72 hours, median, read-out: Antiproli SNU-16 [M] median IC50
Experimental: as §1, §2, §3, §4, §5

A-431 = experiment: Antiproliferation assay (Assay 7), A-431; type: cell-based; settings: Homo sapiens, CellTiter-Glo, 72 hours, median, read-out: Antiproli A-431 [M] median IC50
Experimental: as §1, §2, §3, §4, §5

PA-1 = experiment: Antiproliferation assay (Assay 7), PA-1; type: cell-based; settings: Homo sapiens, CellTiter-Glo, 72 hours, median, read-out: Antiproli PA-1 [M] median IC50
Experimental: as §1, §2, §3, §4, §5

SUDHL10 [2] = tested on: SUDHL10
SUDHL10 [3] = experiment: Antiproliferation assay (Assay 7), SUDHL10; type: cell-based; settings: CellTiter-Glo, median, read-out: Antiproli SUDHL10 [M] (median) IC50
Experimental: as §1, §2, §3, §4, §5

DM-S114 = experiment: Antiproliferation assay (Assay 7), DM-S114; type: cell-based; settings: Homo sapiens, DMS-114, CellTiter-Glo, 72 hours, median, read-out: Antiproli DM-S114 [M] median IC50
Experimental: as §1, §2, §3, §4, §5

| IC50 (SK-MEL-2) [M] | IC50 (SNU-16) [M] | IC50 (A-431) [M] | SMILES | IC50 (PA-1) [M] | further results |
| --- | --- | --- | --- | --- | --- |
| 5.08e-06 | 2.54e-06 | 2.07e-06 | CCc1c2c(nn1C)C(CCC1CCOCC1)N(C)S(=O)(=O)CCCn1c(C(=O)O)c(CCCOc3cccc4cc(F)ccc34)c3ccc(Cl)c-2c31 (racemic) [Example 60, (rac)-4-chloro-3-ethyl-7-{3-[(6-fluoro-1-naphthyl)oxy]propyl}-2,14-dimethyl-15-[2-(tetrahydro-2H-pyran-4-yl)ethyl]-11,12,14,15-tetrahydro-2H,10H-pyrazolo[3′,4′:4,5][1,2,8]thiadiazacycloundecino[6,7,8-hi]indole-8-carboxylic acid 13,13-dioxide (Racemate 1)] | 1.84e-06 | – |
| 1.14e-06 | 1.05e-06 | 1.18e-06 | CCc1c2c(nn1C)CN(CC)S(=O)(=O)CCCn1c(C(=O)O)c(CCCOc3cccc4cc(F)ccc34)c3ccc(Cl)c-2c31 (racemic) [Example 56, (rac)-4-chloro-3,14-diethyl-7-{3-[(6-fluoro-1-naphthyl)oxy]propyl}-2-methyl-11,12,14,15-tetrahydro-2H,10H-pyrazolo[3′,4′:4,5][1,2,8]thiadiazacycloundecino[6,7,8-hi]indole-8-carboxylic acid 13,13-dioxide] | 7.07e-07 | IC50 (DM-S114): 5.61e-07 M |

Further lines, the compound ahead of its results:

| SMILES | IC50 (SK-MEL-2) [M] | IC50 (SNU-16) [M] | IC50 (A-431) [M] | IC50 (PA-1) [M] | further results |
| --- | --- | --- | --- | --- | --- |
| CCc1c2c(nn1C)CN(CCCN1CCOCC1)S(=O)(=O)CCCn1c(C(=O)O)c(CCCOc3cccc4ccccc34)c3cccc-2c31 (racemic) [Example 15, (rac)-12-Ethyl-11-methyl-8-(3-morpholinopropyl)-1-(3-(naphthalen-1-yloxy)propyl)-4,5,6,8,9,11-hexahydropyrazolo[3′,4′:4,5][1,2,8]thiadiazacycloundecino[6,7,8-hi]indole-2-carboxylic acid 7,7-dioxide 2,2,2-trifluoroacetic acid salt] | – | – | – | – | ring closure, yield of all isomers [1]: 48.2% |
| CCc1c2c(nn1C)C(CCN1CCOCC1)N(C)S(=O)(=O)CCCn1c(C(=O)O)c(CCCOc3cccc4cc(F)ccc34)c3ccc(Cl)c-2c31 (racemic) [Example 73, (rac)-(4-chloro-3-ethyl-7-{3-[(6-fluoronaphthalen-1-yl)oxy]propyl}-2,14-dimethyl-15-[2-(morpholin-4-yl)ethyl]-13,13-dioxo-10,11,12,13,14,15-hexahydro-2H-13lambda^6-pyrazolo[3′,4′:4,5][1,2,8]thiadiazacycloundecino[6,7,8-hi]indole-8-carboxylic acid (Racemate 1)] | – | – | – | – | IC50 (SUDHL5): 0.02 µM; IC50 (SUDHL10 [2]): 0.019 µM |
| Cc1c2c(nn1C)CN(C)S(=O)(=O)CCCn1c(C(=O)O)c(CCCOc3cccc4ccccc34)c3ccc(Cl)c-2c31 (racemic) [Example 4, (rac)-4-Chloro-2,3,14-trimethyl-7-{3-[(naphthalen-1-yl)oxy]propyl}-13,13-dioxo-10,11,12,13,14,15-hexahydro-2H-13λ^6-pyrazolo[3′,4′:4,5][1,2,8]thiadiazacycloundecino-[6,7,8-hi]indole-8-carboxylic acid] | – | – | – | – | IC50 (SUDHL10 [3]; Homo sapiens, SU-DHL10, 72 h): 5.6e-07 M |
| Cc1c2c(nn1C)CN(C)S(=O)(=O)CCCn1c(C(=O)O)c(CCCOc3cccc4ccccc34)c3ccc(Cl)c-2c31 (single isomer, unassigned; enantiomer 1) [Example 5, 4-Chloro-2,3,14-trimethyl-7-{3-[(naphthalen-1-yl)oxy]propyl}-13,13-dioxo-10,11,12,13,14,15-hexahydro-2H-13λ^6-pyrazolo[3′,4′:4,5][1,2,8]thiadiazacycloundecino[6,7,8-hi]indole-8-carboxylic acid-N-ethylethanamine salt (Enantiomer 1)] | – | – | – | – | IC50 (SUDHL10 [3]; 72 hours): 4.4e-07 M |
